In the supplement of paper PMC10307832:

What was measured:
Assay in all cases: relative viability (nuclei count vs DMSO), 5 days (fraction); higher = more cells survive
XMD8-85 + Alpelisib = compound: CN1CCN(CC1)C2=CC(=C(C=C2)NC3=NC=C4C(=N3)N(C5=CC=CC=C5C(=O)N4C)C)OC [XMD8-85] + Cc1nc(NC(=O)N2CCC[C@H]2C(N)=O)sc1-c1ccnc(C(C)(C)C(F)(F)F)c1 [Alpelisib] (partner 2 µM)
How it was run: (§1)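 A single step with final 0.05% Triton X-100, 1% formaldehyde and 1 ug/ml Hoechst fixed the cells and stained nuclei 5 days after treatment. Lung cancer cell lines in 1536-well plates had been treated by pin tool the day after seeding with one drug alone or a fixed anchor-drug dose plus five library-drug doses (not always all listed) in √10 steps, and nuclei were counted on 4× images. Relative viability is the ratio of nuclei in treated wells to nuclei in vehicle wells, taken as the median of duplicate plates.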

4EGI-1 + Palbociclib = compound: O=C(O)C(Cc1ccccc1[N+](=O)[O-])=NNc1nc(-c2ccc(Cl)c(Cl)c2)cs1 (mixture of isomers) [4EGI-1] + CC(=O)c1c(C)c2cnc(Nc3ccc(N4CCNCC4)cn3)nc2n(C2CCCC2)c1=O [Palbociclib] (partner 0.5 µM)
How it was run: as §1

4EGI-1 + Bortezomib = compound: O=C(O)C(Cc1ccccc1[N+](=O)[O-])=NNc1nc(-c2ccc(Cl)c(Cl)c2)cs1 (mixture of isomers) [4EGI-1] + CC(C)C[C@H](NC(=O)[C@H](Cc1ccccc1)NC(=O)c1cnccn1)B(O)O [Bortezomib] (partner 0.002 µM)
How it was run: as §1

4EGI-1 + AZD7762 = compound: O=C(O)C(Cc1ccccc1[N+](=O)[O-])=NNc1nc(-c2ccc(Cl)c(Cl)c2)cs1 (mixture of isomers) [4EGI-1] + NC(=O)Nc1cc(-c2cccc(F)c2)sc1C(=O)N[C@H]1CCCNC1 [AZD7762] (partner 0.2 µM)
How it was run: as §1

Cell Line | relative viability (XMD8-85 + Alpelisib; first compound 0.08 µM) | relative viability (XMD8-85 + Alpelisib; first compound 0.253 µM) | relative viability (XMD8-85 + Alpelisib; first compound 0.8 µM) | relative viability (XMD8-85 + Alpelisib; first compound 2.53 µM) | relative viability (XMD8-85 + Alpelisib; first compound 8 µM) | relative viability (4EGI-1 + Palbociclib; first compound 0.5 µM) | relative viability (4EGI-1 + Palbociclib; first compound 1.581 µM) | relative viability (4EGI-1 + Palbociclib; first compound 5 µM) | relative viability (4EGI-1 + Palbociclib; first compound 15.81 µM) | relative viability (4EGI-1 + Palbociclib; first compound 50 µM) | relative viability (4EGI-1 + Bortezomib; first compound 0.5 µM) | relative viability (4EGI-1 + Bortezomib; first compound 5 µM) | relative viability (4EGI-1 + Bortezomib; first compound 15.81 µM) | relative viability (4EGI-1 + Bortezomib; first compound 50 µM) | relative viability (4EGI-1 + AZD7762; first compound 0.5 µM) | relative viability (4EGI-1 + AZD7762; first compound 5 µM) | relative viability (4EGI-1 + AZD7762; first compound 15.81 µM) | relative viability (4EGI-1 + AZD7762; first compound 50 µM) | relative viability (4EGI-1 + Bortezomib; first compound 1.581 µM) | relative viability (4EGI-1 + AZD7762; first compound 1.581 µM)
NCI-H460 | 0.447 | 0.442 | 0.688 | 0.401 | 0.147 | 0.169 | 0.05 | 0.245 | 0.141 | 0.0263 | 1.15 | 1.08 | 0.913 | 0.0451 | 0.572 | 0.705 | 0.24 | 0.302 | – | –
NCI-H647 | 0.837 | 1.18 | 1.22 | 1.35 | 0.734 | 0.53 | 0.302 | 0.455 | 0.303 | 0.0557 | 1.08 | 1.13 | 0.533 | 0.748 | 0.375 | 0.643 | 0.192 | 0.101 | 1.08 | –
NCI-H650 | 1.09 | 0.928 | 1.17 | 0.979 | 0.592 | 0.319 | – | 0.295 | 0.319 | 0.33 | 0.905 | 0.753 | 0.899 | 0.499 | 1.09 | 0.978 | 0.912 | 0.318 | – | –
NCI-H727 | 0.759 | 0.541 | 0.546 | 0.534 | 0.304 | 0.689 | 0.617 | 0.641 | 0.604 | 0.62 | 0.985 | 0.652 | 0.722 | 0.442 | 0.631 | 0.511 | 0.519 | 0.478 | 0.874 | 0.631
NCI-H838 | 0.983 | 1.03 | 1.09 | 1.01 | 0.446 | 0.237 | 0.223 | 0.228 | 0.2 | 0.119 | 0.865 | 0.82 | 0.612 | 0.167 | 1.05 | 0.904 | 0.647 | 0.617 | – | –
NCI-H1355 | 0.844 | 0.89 | 0.807 | 0.731 | – | 0.415 | 0.396 | 0.406 | 0.337 | 0.316 | 1.32 | 1.11 | 1.18 | 0.545 | 0.865 | 0.801 | 0.769 | 0.27 | 1.17 | 0.69
NCI-H1437 | 0.914 | 0.992 | 1.07 | 0.753 | 0.515 | 0.368 | 0.308 | 0.335 | 0.279 | 0.168 | 0.604 | 0.442 | 0.187 | 0.119 | 1.09 | 1.09 | 0.525 | 0.315 | 0.632 | 1.01
NCI-H1651 | 0.948 | 0.951 | 1.04 | 0.954 | 0.548 | 0.559 | 0.478 | 0.493 | 0.534 | 0.509 | 0.951 | 0.934 | 0.896 | 0.772 | 0.519 | 0.521 | 0.31 | 0.195 | 0.837 | 0.43
